Among the data in PubChem BioAssay AID2060886 (Molecular Pharmacology Branch, DTP, NCI, 2025) are viability, T/C and IC50 values, retold here.

Values joined by “and” are separate entries in the source; they are usually repeats but may differ in a detail not shown here. Identical values can stand only once. Where only a bound is given, the exact number is not on record here.

The test system of this assay is 653999-131-R-J2-PDC complex spheroids, growth inhibition. Put plainly: Anticancer human tumor 653999-131-R-J2-PDC patient-derived lung adenocarcinoma cell line growth inhibition [RAS]. Conditions: for viability, T/C: stronger effect = lower value. An excerpt: RAS pathway inhibitors in Combinations in Complex Spheroids
A high-throughput screen of multi-cell type tumor spheroids was designed to identify active combinations of RAS pathway inhibitors and targeted small molecules. Complex spheroids include a stromal component modeled by human endothelial cells (HUVEC) and fibroblasts modeled by human mesenchymal stem cells (MSCs). The concentration ranges selected for each drug and investigational agent were based upon clinically achievable concentrations if the clinical Cmax of the agent was known.
Compounds. The drugs and investigational agents: abemaciclib (NSC768073), cobimetinib (NSC768068), divarasib (GDC6063, NSC841802), docetaxel (NSC628503), GDC-1971 (RLY-1971, NSC841576), gemcitabine (NSC613327), inavolisib (NSC800729), ipatasertib (NSC767898), KB-0742 (NSC834161), MRTX-1133 (NSC836407), osimertinib (NSC779217), RMC-4630 (NSC839698), RMC-6236 (NSC851965), RMC-6291 (NSC852671), Ro-3306 (NSC812927), sapanisertib (NSC764658), SN-38 (NSC673596), staurosporine (NSC755774), SY5609 (NSC837396), and tovorafenib (DAY101, NSC766906), were obtained from the National Cancer Institute (NCI) Developmental Therapeutics Program Chemical Repository. The FDA-approved anticancer drug set is available from the NCI Developmental Therapeutics Program. […] The stock solutions were prepared in dimethyl sulfoxide (DMSO, Sigma-Aldrich, St. Louis, MO, cat. D2650) at 800-fold the tested concentration and stored at -70 degrees C prior to their use. All drugs and investigational agents were tested over a range starting from a high concentration at or near the clinical Cmax and decreasing in half-log increments. If the clinical Cmax for an agent had not been determined, the highest concentration tested was 10 microM.
Cell Culture. All cells were maintained in an incubator at 37 degrees C and 5% CO2 with 95% humidity. The PDC lines were cultured according to standard operating procedures established by the NCI PDMR. All PDCs were thawed and cultured in Matrigel-coated flasks prepared with a working solution of 1X Ham's F-12 nutrient mix, without supplementation (Invitrogen, Waltham, MA, cat. 11765054), 100 U/mL penicillin-streptomycin (Invitrogen, cat. 15140122), and 2.5% Matrigel (Corning Inc., Corning, NY, cat. 354248) for the first three passages. The 362531-283-R-J2-PDC and 782815-120-R-J1-PDC lines were cultured in 6C/Colon 1B media, which includes advanced DMEM/F-12 (Thermo Fisher Scientific, cat. 12634028), 10 mM HEPES (Thermo Fisher Scientific, cat. 15630080), 1X GlutaMAX supplement (Thermo Fisher Scientific, cat. 35050061), 0.1 mg/mL primocin (InvivoGen, San Diego, CA, cat. ant-pm-2), 10% defined fetal bovine serum, heat inactivated (HyClone Laboratories Inc., Logan, UT, cat. SH30070.03HI), 50% L-WRN conditioned media (ATCC, cat. CRL-3276), 1.25 mM N-Acetyl-L-cysteine (Sigma-Aldrich, cat. A9165), 10 mM nicotinamide (Sigma-Aldrich, cat. N0636), 1X B-27 supplement (Thermo Fisher Scientific, cat. 17504044), 1X N-2 supplement (Thermo Fisher Scientific, cat. 17502048), 50 ng/mL human EGF (Thermo Fisher Scientific, cat. PHG0311), and 10 microM Y-27632 dihydrochloride (Tocris Bioscience, cat. 1254). The K12877-001-R-J1-PDC line was cultured in 6I media, which includes all 6C/Colon 1B media plus 10 ng/mL human FGF-10 (PeproTech, cat. 100-26), 1 ng/mL human FGF-2 (PeproTech, cat. 100-18B), 1 µM prostaglandin E2 (Tocris Bioscience, cat. 2296), […] hydrocortisone (Sigma-Aldrich, cat. H4001), and […] bovine insulin (Sigma-Aldrich, cat. I6634). The K86415-001-R-J1-PDC line was cultured in 6D media, which includes all 6C/Colon 1B media components minus the L-WRN conditioned media. The 485176-168-R4-J1-PDC was cultured in PANC media, which includes all 6C/Colon 1B media plus 100 ng/mL human FGF-10 (PeproTech, cat. 100-26), 500 nM SB-431542 (Selleckchem, cat. S1067), and 10 nM gastrin (Tocris Bioscience, cat. 3006). […]

As usually defined, the viability, T/C is the result in the treated group divided by that in the control group, in per cent. One may read the IC50 as the concentration that gives 50% inhibition.
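Further: spheroids exposed to the agents for seven days before the readout.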

Turning to `CCn1c(-c2cccnc2C(C)OC)c2c3cc(ccc31)N1CCOC(CC(NC(=O)C(C(C)C)N(C)C(=O)C3(F)CCN(C(=O)C#CC(C)(C)N(C)C)CC3)C(=O)N3CCCC(N3)C(=O)OCC(C)(C)C2)C1` (stereo not given), the viability, T/C (compound 0.003 µM) is 95.1% [middle of 8 runs]; the viability, T/C (compound 0.00949 µM) is 99.5% [middle of 8 runs]; the viability, T/C (compound 0.03 µM) was 104% [middle of 8 runs]; the viability, T/C (compound 0.0949 µM) is 99.9% [middle of 8 runs]; the viability, T/C (compound 0.3 µM) is 107% [middle of 8 runs]. Further, the IC50 (compound alone, run of 08/20/2024) is greater than 0.3 µM.
As for `NC1c2ccccc2OC12CCN(c1cnc3c(N4CCCc5ncccc54)n[nH]c3n1)CC2` (stereo not given) + CCn1c(-c2cccnc2C(C)OC)c2c3cc(ccc31)N1CCOC(CC(NC(=O)C(C(C)C)N(C)C(=O)C3(F)CCN(C(=O)C#CC(C)(C)N(C)C)CC3)C(=O)N3CCCC(N3)C(=O)OCC(C)(C)C2)C1, the IC50 reads like this: (curve of first compound, second compound 0.000949 µM) greater than 10 µM; (curve of first compound, second compound 0.003 µM) greater than 10 µM; (curve of first compound, second compound 0.00949 µM) greater than 10 µM; (curve of first compound, second compound 0.03 µM) greater than 10 µM; (curve of first compound, second compound 0.0949 µM) greater than 10 µM; (curve of first compound, second compound 0.3 µM) greater than 10 µM. Further, the viability, T/C runs as follows: (second compound 0.000949 µM, first compound 0.0316 µM) 74.6%; (second compound 0.000949 µM, first compound 0.1 µM) 75.4%; (second compound 0.000949 µM, first compound 0.316 µM) 82.6%; (second compound 0.000949 µM, first compound 1 µM) 71.6%; (second compound 0.000949 µM, first compound 3.16 µM) 71.9%; (second compound 0.000949 µM, first compound 10 µM) 85.5%. Moreover, the viability, T/C by setting is: (second compound 0.003 µM, first compound 0.0316 µM) 83.4%; (second compound 0.003 µM, first compound 0.1 µM) 83.3%; (second compound 0.003 µM, first compound 0.316 µM) 75.5%; (second compound 0.003 µM, first compound 1 µM) 67%; (second compound 0.003 µM, first compound 3.16 µM) 75.8%; (second compound 0.003 µM, first compound 10 µM) 77.5%. Besides, the viability, T/C runs as follows: (second compound 0.00949 µM, first compound 0.0316 µM) 70.3%; (second compound 0.00949 µM, first compound 0.1 µM) 82.2%; (second compound 0.00949 µM, first compound 0.316 µM) 67.6%; (second compound 0.00949 µM, first compound 1 µM) 76.2%; (second compound 0.00949 µM, first compound 3.16 µM) 72.3%; (second compound 0.00949 µM, first compound 10 µM) 65.3%. In addition, the viability, T/C (second compound 0.03 µM, first compound 0.0316 µM) was 68.9%; the viability, T/C (second compound 0.03 µM, first compound 0.1 µM) is 66.2%; the viability, T/C (second compound 0.03 µM, first compound 0.316 µM) was 64.1%; the viability, T/C (second compound 0.03 µM, first compound 1 µM) is 72%; the viability, T/C (second compound 0.03 µM, first compound 3.16 µM) was 76.2%; the viability, T/C (second compound 0.03 µM, first compound 10 µM) is 67.7%. Besides, the viability, T/C (second compound 0.0949 µM, first compound 0.0316 µM) is 78.6%; the viability, T/C (second compound 0.0949 µM, first compound 0.1 µM) was 71.4%; the viability, T/C (second compound 0.0949 µM, first compound 0.316 µM) is 73.5%; the viability, T/C (second compound 0.0949 µM, first compound 1 µM) is 71.9%; the viability, T/C (second compound 0.0949 µM, first compound 3.16 µM) was 72.1%; the viability, T/C (second compound 0.0949 µM, first compound 10 µM) was 73.5%. Further, the viability, T/C was 83.8% (second compound 0.3 µM, first compound 0.0316 µM); 72.2% (second compound 0.3 µM, first compound 0.1 µM); 87.3% (second compound 0.3 µM, first compound 0.316 µM); 79.6% (second compound 0.3 µM, first compound 1 µM); 70% (second compound 0.3 µM, first compound 3.16 µM); 71.7% (second compound 0.3 µM, first compound 10 µM).
Take `CC(C)n1nc(-c2ccc3oc(N)nc3c2)c2c(N)ncnc21`: the viability, T/C is 87.2% and 81.4% and 79.2% (compound 0.000316 µM); 89.2% and 93.6% and 71.3% (compound 0.001 µM); 87.7% and 76.8% and 77.8% (compound 0.00316 µM); 61.8% and 63.5% and 57.9% (compound 0.01 µM); 43.1% and 40.6% and 35.8% (compound 0.0316 µM); 34.1% and 25.4% and 27.2% (compound 0.1 µM). The IC50 (curve of compound) was 0.0195 µM and 0.0194 µM and 0.0154 µM.
